This is an account of results in PubChem BioAssay AID2060901 (Molecular Pharmacology Branch, DTP, NCI, 2025).

The subject of this test is 422866-222-R5-J1-PDC complex spheroids viability. The test is described as follows: Anticancer human tumor 422866-222-R5-J1-PDC patient-derived pancreatic adenocarcinoma cell line growth inhibition [RAS]. Conditions: for viability, T/C: stronger effect = lower value. In a few lines:
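Tumour cells grown as complex spheroids with HUVEC endothelial cells and mesenchymal stem cells, treated with RAS pathway inhibitor combinations. Each agent spans half-log steps from near clinical Cmax, or 10 microM where Cmax is unknown.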
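Note: spheroids exposed to compounds for 7 days.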
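Throughout, for viability, T/C: 100% = DMSO vehicle control viability.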

Take `Cc1nc(N2CCC3(CC2)COC(C)C3N)c(CO)nc1Sc1ccnc(N)c1Cl` (configuration not stated) + C#Cc1c(F)ccc2cc(O)cc(-c3ncc4c(N5CC6CCC(C5)N6)nc(OCC56CCCN5CC(F)C6)nc4c3F)c12: the IC50 – broadly, the concentration needed to halve the response being measured – by setting is: (curve of first compound, second compound 0.0316 µM) 328 nM; (curve of first compound, second compound 0.1 µM) 126 nM; (curve of first compound, second compound 0.316 µM) 61.6 nM; (curve of first compound, second compound 1 µM) under 31.6 nM; (curve of first compound, second compound 3.16 µM) under 31.6 nM; (curve of first compound, second compound 10 µM) under 31.6 nM. Besides, the viability, T/C (in general, the result in the treated group divided by that in the control group, in per cent) by setting is: (second compound 0.0316 µM, first compound 0.0316 µM) 74.7%; (second compound 0.0316 µM, first compound 0.1 µM) 65.3%; (second compound 0.0316 µM, first compound 0.316 µM) 49.2%; (second compound 0.0316 µM, first compound 1 µM) 42.2%; (second compound 0.0316 µM, first compound 3.16 µM) 39.6%; (second compound 0.0316 µM, first compound 10 µM) 35.9%. For the same molecule, the viability, T/C reads like this: (second compound 0.1 µM, first compound 0.0316 µM) 80.5%; (second compound 0.1 µM, first compound 0.1 µM) 52.5%; (second compound 0.1 µM, first compound 0.316 µM) 38.9%; (second compound 0.1 µM, first compound 1 µM) 36.8%; (second compound 0.1 µM, first compound 3.16 µM) 34.8%; (second compound 0.1 µM, first compound 10 µM) 30.5%. Moreover, the viability, T/C is 62.4% (second compound 0.316 µM, first compound 0.0316 µM); 40.5% (second compound 0.316 µM, first compound 0.1 µM); 33.2% (second compound 0.316 µM, first compound 0.316 µM); 30.3% (second compound 0.316 µM, first compound 1 µM); 29.9% (second compound 0.316 µM, first compound 3.16 µM); 26.7% (second compound 0.316 µM, first compound 10 µM). The viability, T/C is 37.6% (second compound 1 µM, first compound 0.0316 µM); 46.7% (second compound 1 µM, first compound 0.1 µM); 24.3% (second compound 1 µM, first compound 0.316 µM); 22% (second compound 1 µM, first compound 1 µM); 24.5% (second compound 1 µM, first compound 3.16 µM); 20.9% (second compound 1 µM, first compound 10 µM). Also, the viability, T/C is 24.5% (second compound 3.16 µM, first compound 0.0316 µM); 23.1% (second compound 3.16 µM, first compound 0.1 µM); 20.3% (second compound 3.16 µM, first compound 0.316 µM); 16.5% (second compound 3.16 µM, first compound 1 µM); 18% (second compound 3.16 µM, first compound 3.16 µM); 18.3% (second compound 3.16 µM, first compound 10 µM). Also, the viability, T/C (second compound 10 µM, first compound 0.0316 µM) is 16.5%; the viability, T/C (second compound 10 µM, first compound 0.1 µM) was 19.6%; the viability, T/C (second compound 10 µM, first compound 0.316 µM) was 18%; the viability, T/C (second compound 10 µM, first compound 1 µM) was 14.8%; the viability, T/C (second compound 10 µM, first compound 3.16 µM) is 15%; the viability, T/C (second compound 10 µM, first compound 10 µM) was 16.3%.
`CC(C)n1nc(-c2ccc3oc(N)nc3c2)c2c(N)ncnc21`: the viability, T/C is 103% [middle of 4 runs] (compound 0.000316 µM), 82.4% [middle of 4 runs] (compound 0.001 µM) and 94% [middle of 4 runs] (compound 0.01 µM). Also, where the note is “curve of compound”, the IC50 is over 100 nM.
As to `CCc1c2c(nc3ccc(O)cc13)-c1cc3c(c(=O)n1C2)COC(=O)[C@]3(O)CC`, the viability, T/C reads like this: (compound 0.000949 µM) 77.2% [middle of 4 runs]; (compound 0.003 µM) 51.2% [middle of 4 runs]; (compound 0.00949 µM) 51.5% [middle of 4 runs]; (compound 0.03 µM) 53.4% [middle of 4 runs]; (compound 0.3 µM) 41.4% [middle of 4 runs].
`CC(=O)OC12COC1CC(O)C1(C)C(=O)C(O)C3=C(C)C(OC(=O)C(O)C(NC(=O)OC(C)(C)C)c4ccccc4)CC(O)(C(OC(=O)c4ccccc4)C21)C3(C)C` (configuration not stated): the viability, T/C was 60% [middle of 4 runs] (compound 0.0316 µM); 71.8% [middle of 4 runs] (compound 0.1 µM); 71.4% [middle of 4 runs] (compound 0.316 µM); 78.2% [middle of 4 runs] (compound 1 µM); 77.4% [middle of 4 runs] (compound 10 µM). Further, the IC50 (curve of compound) was over 10000 nM.
